Laboratory results from article PMC4148167 (Journal of Medicinal Chemistry, 2014).
≈ marks a conversion by molar mass, not a printed value.

Experiments:
kinetic solubility = format: physicochemical; details: normal saline, pH 7.4
Molm-14 AML cells = assay: soft agar colony formation, Molm-14; format: cell-based; details: 2 weeks, negative control 20 at 50 nM
A549 NSCLC cells = assay: soft agar colony formation, A549; format: cell-based; details: 2 weeks, negative control 20 at 300 nM
Mer = molecular target: T1, Mer (Homo sapiens, UniProt Q12866); assay: pharmacodynamic study: Mer phosphorylation in bone marrow leukemia cells in vivo; set-up: species or system NOD/SCID/gamma mice with 697 human leukemia xenografts; details: single 3 mg/kg oral dose, 30 min after dosing
T1 sequence (Q12866 21-999): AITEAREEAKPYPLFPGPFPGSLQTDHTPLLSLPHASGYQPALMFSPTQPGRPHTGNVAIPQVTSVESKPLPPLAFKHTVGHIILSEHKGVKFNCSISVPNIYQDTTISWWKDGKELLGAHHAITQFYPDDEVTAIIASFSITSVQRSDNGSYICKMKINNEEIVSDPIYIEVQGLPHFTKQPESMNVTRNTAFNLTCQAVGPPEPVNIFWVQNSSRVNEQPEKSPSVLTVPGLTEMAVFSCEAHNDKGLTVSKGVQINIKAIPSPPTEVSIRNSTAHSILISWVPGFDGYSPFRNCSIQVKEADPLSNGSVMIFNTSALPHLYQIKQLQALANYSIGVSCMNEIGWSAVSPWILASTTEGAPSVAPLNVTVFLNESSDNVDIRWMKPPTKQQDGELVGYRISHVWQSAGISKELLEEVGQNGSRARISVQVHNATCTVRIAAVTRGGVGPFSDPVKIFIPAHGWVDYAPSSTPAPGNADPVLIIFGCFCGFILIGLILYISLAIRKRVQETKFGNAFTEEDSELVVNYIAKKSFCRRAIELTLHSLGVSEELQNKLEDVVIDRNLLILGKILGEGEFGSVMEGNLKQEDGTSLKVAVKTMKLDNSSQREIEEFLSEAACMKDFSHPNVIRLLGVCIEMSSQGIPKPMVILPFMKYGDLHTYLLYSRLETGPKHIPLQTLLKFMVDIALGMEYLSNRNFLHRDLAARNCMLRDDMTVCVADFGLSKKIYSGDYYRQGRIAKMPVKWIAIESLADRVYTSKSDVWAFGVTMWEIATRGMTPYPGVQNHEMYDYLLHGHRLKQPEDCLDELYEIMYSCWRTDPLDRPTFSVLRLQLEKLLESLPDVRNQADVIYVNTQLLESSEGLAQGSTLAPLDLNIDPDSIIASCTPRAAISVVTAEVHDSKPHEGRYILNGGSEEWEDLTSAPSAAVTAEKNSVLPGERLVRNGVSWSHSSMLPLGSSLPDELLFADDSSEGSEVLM

305 kinases = assay: Carna Biosciences kinome profile at 100 nM; format: biochemical; details: in duplicate

| solubility kinetic (kinetic solubility) | decrease of Mer phospho-protein levels in bone marrow leukemia cells (Mer) | SMILES | effect on colony formation in soft agar, Molm-14 AML (Molm-14 AML cells) | effect on colony formation in soft agar, A549 NSCLC (A549 NSCLC cells) | number of kinases inhibited by more than 50% (305 kinases) |
| --- | --- | --- | --- | --- | --- |
| 38 µg/mL (≈ 79.7 µM) | greater than 90% | CCCCNc1ncc2c(-c3ccc(CN4CCN(C)CC4)cc3)cn([C@H]3CC[C@H](O)CC3)c2n1 [Compound 11] | significant inhibition of colony formation | significant inhibition of colony formation | Sixty-six |
| – | – | CCCCN(C)c1ncc2c(-c3ccc(CN4CCN(C)CC4)cc3)cn([C@H]3CC[C@H](O)CC3)c2n1 [Compound 20] | no significant effect | no significant effect | – |
